Source: patent US8293716B2, “Method of treating cancer by modulation of mortalin” (Ramot At Tel Aviv University Ltd., priority 2005, dated 2012)
Where a SMILES comes first, the peptide text is derived from it. The star is where a group is joined. Cbz = O=C(OCc1ccccc1)*; CH2F = FC*

What was measured:
solid tumors = conditions: cited from earlier work
K562 cells [1] = assay: Complement-induced protection assay; type: cell-based, human; conditions: cells pre-treated with inhibitor and sublytic complement, then lytic dose of antibody and complement; FIGS. 6f-g
Experimental: (§1) Cell lysis and induced protection assays: Cytotoxicity assays were performed as previously described (Reiter, Y. and Fishelson, Z. 1992. Mol Immunol 29:771). Briefly, cells were incubated with diluted anti-K562 antiserum for 30 minutes at 4 degrees centigrade and then with complement (NHS, C7- or C8-deficient serum or HI-NHS, 50 percent) for 60 minutes at 37 degrees centigrade. Cell lysis was determined via Trypan blue staining. For the complement-induced protection assays, the cells were first treated with sublytic doses of antibody and NHS, washed and then incubated with lytic doses of antibody and NHS (Reiter, Y. et al., 1992. Eur J Immunol 22:1207). Statistical significance was analyzed by using the two-sided unpaired student's t-test.

K562 cells [2] = assay: Release of metabolically-labeled proteins from complement-treated K562 cells; type: cell-based, human; conditions: pretreatment 30 minutes with 100 micrograms per milliliter PMB or 10 micromolar PD; radioactivity in supernatants; FIG. 6e
Experimental: (§2) Collection of extracellular protein: Cells were treated with antibodies for 30 minutes at 4 degrees centigrade and then with NHS or HI-NHS (50 percent) for 10 minutes at 37 degrees centigrade. Then, the cells were extensively washed into HBSS and incubated at 37 degrees centigrade. At different times, cells were removed by centrifugation at 250×g and supernatants were collected and kept frozen until analyzed. In some experiments, cells were first metabolically labeled for 2 hours at 37 degrees centigrade with an L-[^35S]methionine, L-[^35S]cysteine mix (Amersham Pharmacia, Uppsala, Sweden) at 200 microcuries per milliliter in RPMI (lacking methionine and cysteine) and 20 millimolar HEPES-pH 7.0. Cytotoxicity assays and collection of extracellular proteins were performed as described above. Radioactivity in the supernatants was quantified in a beta-Scintillation Counter (Tri-Carb, Packard).

mortalin [3] = assay: Mortalin release into supernatants of K562 cells, SDS-PAGE and Western blotting; type: cell-based, human; conditions: for release of mortalin from complement-treated cells: 30 minutes pretreatment (PMB 100 micrograms per milliliter, PD98059 10 micromolar), then sublytic anti-K562 antibody and NHS, FIGS. 6a-d; for mortalin release in response to sublytic dose of pore-former: mellitin 70 micromolar, SLO 900 units per milliliter, 10 minutes 37 degrees, no complement, FIGS. 4c-d
Experimental: as §2
Protein analyses: Protein concentration was analyzed with the BCA Protein Assay Kit (Pierce, Rockford, Ill., USA). Samples of 20 micrograms of protein was subjected to SDS-PAGE under reducing conditions (50 millimolar DTT), in a 10 percent acrylamide gel, and stained with Coomassie Blue or silver. Selected protein species were excised from Coomassie Blue-stained gels and analyzed by mass spectrometry (MALDI-MS) at the Maiman Institute for Proteome Research (Tel-Aviv University). Alternatively, the electrophoretically separated proteins were transferred onto a nitrocellulose membrane (Schleicher & Schuell, Dassel, Germany). The membrane was blocked with 5 percent skim milk (Tnuva, Rehovot, Israel) in Tris-buffered saline containing 0.05 percent Tween-20 (Sigma; TBST) for 1 hour at room temperature. The membrane was treated with rabbit anti-mortalin antibodies and then with peroxidase-conjugated goat anti-rabbit IgG. The labeled membrane was developed with an enhanced chemiluminescence reagent (Pierce, Rockford, Ill., USA) and exposed to a SuperRX film (Fuji, Tokyo, Japan).

K562 cells [4] = assay: Complement-mediated cell lysis (cytotoxicity) assay, Trypan blue staining; type: cell-based, human; conditions: 10 micromolar cathepsin L inhibitor 30 minutes, anti-K562 1:40 or 1:50, NHS 60 minutes; versus DMSO; FIG. 8b
Experimental: (§3) Cells and cell lysates: The human erythroleukemic cell line K562 was cultured in RPMI-1640 medium supplemented with 10 percent (v/v) heat-inactivated fetal bovine serum (Gibco laboratories, Grand Island, NY, USA), 1 percent glutamine, 2 percent pyruvate and antibiotics mixture (Bio-Lab, Jerusalem, Israel), at 37 degrees centigrade in a 5 percent carbon dioxide atmosphere. To prepare cell lysates, 20 million cells were mixed with 1 milliliter lysis buffer composed of 100 millimolar Tris-pH 7.5, 10 millimolar EDTA, protease inhibitor cocktail (Sigma) and 0.7 percent Triton X-100. After 3 cycles of freezing and thawing, the cell lysate was subjected to centrifugation for 15 minutes at 14,000×g, and the supernatant was collected and diluted with 1 milliliter HBSS (Sigma, Rehovot, Israel).
as §1, with “For the complement-induced protection assays, the cells were first treated with sublytic doses of antibody and NHS, washed and then incubated with lytic doses of antibody and NHS (Reiter, Y. et al., 1992. Eur J Immunol 22:1207).” left out

mortalin [5] = assay: Mortalin expression level in K562 cells, Western blotting of cell lysates; type: cell-based, human; conditions: cathepsin L inhibitor 5, 10, 20 or 40 micromolar, 30 minutes 37 degrees; FIG. 8a
Experimental: as §3
Protein analyses: Protein concentration was analyzed with the BCA Protein Assay Kit (Pierce, Rockford, Ill., USA). Samples of 20 micrograms of protein was subjected to SDS-PAGE under reducing conditions (50 millimolar DTT), in a 10 percent acrylamide gel, and stained with Coomassie Blue or silver. Selected protein species were excised from Coomassie Blue-stained gels and analyzed by mass spectrometry (MALDI-MS) at the Maiman Institute for Proteome Research (Tel-Aviv University). […]

| Compound | acquired resistance to lytic complement after sublytic complement (K562 cells [1]) | complement-induced release of metabolically-labeled proteins (K562 cells [2]) | release of mortalin from complement-treated cells (mortalin [3]) | mortalin release in response to sublytic dose of pore-former (mortalin [3]) | further results |
| --- | --- | --- | --- | --- | --- |
| CCn1c(=O)/c(=C2\Sc3ccccc3N2C)s/c1=C\c1cccc[n+]1CC.[Cl-] [MKT-077] |  |  |  |  | kidney toxicity in human patients (solid tumors; Propper et al. 1999): irreversible kidney damage; effectiveness when used to treat cancer patients (solid tumors; cancer patients): ineffective or suboptimally effective |
| COc1cccc(-c2cc(=O)c3ccccc3o2)c1N [PD98059] | did not acquire the resistance to lytic complement | blocked | significantly reduced |  |  |
| O=C(N[C@@H](Cc1ccccc1)C(=O)N[C@@H](Cc1ccccc1)C(=O)CF)OCc1ccccc1 [cathepsin L inhibitor, Z-Phe-Phe-CH2F] (Cbz-Phe-Phe-CH2F) |  |  |  |  | resistance of treated cells to lysis by antibody and complement (K562 cells [4]): enhanced resistance; mortalin expression in K562 cells (mortalin [5]): elevation of mortalin expression |
| Streptolysin O [SLO] |  |  |  | not released |  |
| mellitin |  |  |  | not released |  |
| polymyxin B [PMB] | did not acquire the resistance to lytic complement | blocked | significantly reduced |  |  |
